Experimental data from US9573956B2, “Compounds as dual inhibitors of phosphodiesterases and histone deacetylases” (FUNDACIÓN PARA LA INVESTIGACIÓN MÉDICA APLICADA, priority 2013, dated 2017).
Read-outs that look alike come from different tables or passages of the source. Marks after values point to notes of the source that are not given here.

How the values were obtained:
PDE5A = molecular target: T1, PDE5A (Homo sapiens, UniProt O76074); assay: PDE enzyme activity assay (HTRF cGMP), PDE5A; type: biochemical; conditions: recombinant enzyme; read-out: PDE5A1 inhibition (IC50)
T1 construct: they are full-length with N-terminal GST tag; GST (N); purchased BPS Biosciences 60050; host or cells: baculovirus infected Sf9 cells

PDE9A isoform b = molecular target: T2, PDE9A isoform b (Homo sapiens, UniProt O76083); assay: PDE enzyme activity assay (HTRF cGMP), PDE9A; type: biochemical; conditions: recombinant enzyme; read-out: PDE9A inhibition (IC50)
T2 construct: they are full-length with N-terminal GST tag; GST (N); purchased BPS Biosciences 60090; host or cells: baculovirus infected Sf9 cells

pCREB [1] = assay: In-vivo activity, hippocampus of wild type mice: pCREB; set-up: species or system mouse; conditions: i.p. 40 mg/kg, hippocampus one hour later
Procedure: (§1) To determine the ability of the compounds to inhibit HDAC and PDE in the brain, the compound was administered to wild type mice by i.p. at a dose of 40 mg/kg (n=3). Another group of animals received the vehicle (1/1/8, v:v:v, DMSO/Tween 20/saline). One hour later, mice were sacrificed by cervical dislocation and their hippocampus was quickly dissected from the brains.
(§2) Total tissue homogenates were obtained by homogenizing the hippocampus in a cold lysis buffer with protease inhibitors (0.2 M NaCl, 0.1 M HEPES, 10% glycerol, 200 mM NaF, 2 mM Na4P2O7, 5 mM EDTA, 1 mM EGTA, 2 mM DTT, 0.5 mM PMSF, 1 mM Na3VO4 and Complete Protease Inhibitor Cocktail, Roche Diagnostics). The homogenate was then centrifuged at 14,000×g at 4° C. for 20 min and the supernatant aliquoted and stored at −80° C. Total protein concentrations were determined using the BioRad Bradford protein assay (BioRad Laboratories). Protein samples were analyzed as described in the “in vitro” section.

AcH3 = assay: In-vivo activity, hippocampus of wild type mice: AcH3; set-up: species or system mouse; conditions: i.p. 40 mg/kg, hippocampus one hour later
Procedure: as §1, §2

PDE4A1 = molecular target: T3, PDE4A1 (Homo sapiens, UniProt P27815); assay: PDE enzyme activity assay (HTRF cGMP), PDE4A1; type: biochemical; conditions: read-out: PDE4A1 inhibition (IC50)
T3 construct: they are full-length with N-terminal GST tag; GST (N); purchased BPS Biosciences 60040; host or cells: baculovirus infected Sf9 cells

PDE4D7 = PDE4D7 (Homo sapiens, UniProt Q08499); assay: PDE enzyme activity assay (HTRF cGMP), PDE4D7; type: biochemical; conditions: read-out: PDE4D7 inhibition (IC50)
Excerpt: The biochemical assay to measure PDE5A, PDE9A isoform b, PDE4D7, and PDE4A1 enzyme activities relies on the HTRF cGMP assay kit from CisBio (CisBio, Cat. #62GM2PEB), that determines the amount of cGMP present in the reaction. The enzymes were obtained from BPS Biosciences (GenBank Accession number for PDE5A: NM_001083, Cat. #60050; PDE9A: NM_001001567, Cat. #60090; PDE4D7: NM_001165899, Cat. #60047; and PDE4A1: U97584, Cat. #60040) and they are full-length with N-terminal GST tag. They were expressed in a baculovirus infected Sf9 cell expression system.
For each enzyme, enzyme activity assay was carried out in a 384-well plate in a final volume of 20 μL, as follows: • 2.5 μL of vehicle or studied compound 4× concentrated prepared in assay buffer containing 50 mM Tris-HCl, 6 mM MgCl2, pH 7.4 (PDE5A, PDE4D7, PDE4A1) and additionally 0.03% Tween-20 (PDE9A). Final percentage of DMSO was 0.5%. • 2.5 μL of PDE5A (7 μg/mL) or 2.5 μL PDE9A (0.2 μg/mL) or 2.5 μL PDE4D7 (1.25 μg/mL) or 2.5 μL PDE4A1 (1.5 μg/mL) diluted in assay buffer. […]
Fluorescence of each well was determined at […] using the plate reader EnVision (Perkin-Elmer). Results were calculated from the 665 nm/620 nm ratio. […]

HDAC1 = HDAC1 (Homo sapiens, UniProt Q13547); assay: HDAC enzyme activity assay (fluorogenic substrate), HDAC1; type: biochemical; conditions: read-out: HDAC1 inhibition (IC50)
pCREB [2] = assay: PDE activity in wild type primary neurons (Western blot pCREB); type: cell-based; conditions: Mus musculus, Neuron, 0.5 h, 30 min, EC50 = 50% increase in pCREB over basal
[3] = system: acetylated histone 3 at Lys9 (AcH3K9); assay: HDAC activity in wild type primary neurons (Western blot AcH3K9); type: cell-based, mouse; conditions: Mus musculus, Neuron, 0.5 h, 30 min, EC50 = 50% increase in AcH3K9 over basal, read-out: AcH3 (EC50)
[4] = Pharmacokinetics, plasma and brain concentrations in wild type mice; type: in vivo; conditions: mouse, ip
Procedure: Plasma and brain samples for measuring compounds concentrations were collected at predetermined times from four wild type mice per point. Three time points were measured: 0.25, 0.5 and 1.0 hour. Compounds concentration was measured using a Xevo-TQ MS triple quadropole mass spectrometer with an electrospray ionization (ESI) source and an Acquity UPLC (Waters, Manchester, UK).
[…]. Compounds were injected as a single intraperitoneal injection. Animals were killed by decapitation.
Plasma. Blood was collected into tubes containing EDTA and plasma was collected via centrifugation (4° C., 13200 rpm, 5 min) and stored at −80° C. until analysis.
Brain. Brains were collected immediately after mice death. The brains were excised, weighed and frozen at −80° C. until further process for analysis.
Chromatographic separation was performed by gradient elution at 0.4 mL/min using an Acquity UPLC BEH C18 column (100×2.1 mm, 1.7 μm particle size; Waters). The mobile phase consisted of A: water with 0.1% formic acid, B: methanol with 0.1% formic acid. After 1.5 min at the initial condition of 95% A, solvent B was increased from 5% to 100% over 2 min, maintained at 100% for 1.5 min, then a linear gradient to initial conditions was applied for 0.1 min and maintained for 3.4 minutes to re-equilibrate the column, giving a cycle time of 8.5 min. The autosampler temperature was set at 10° C. and column temperature at 45° C.
Compounds were monitored using a triple quadrupole mass spectrometer equipped with an electrospray ionization interface. For detection and quantification, a capillary voltage of 3.5 kV and a cone voltage of 38 V were used. Source and desolvation temperatures were 150° C. and 650° C., respectively. Ultra-high purity nitrogen was used for cone gas (75 L h^−1) and desolvation gas (1000 L h^−1). The electrospray ionization operated in the positive mode, and the collision gas used was ultra-pure argon at a flow rate of 0.15 mL min^−1.
Quantification was achieved by external calibration using matrix-matched standards. Concentrations were calculated using a weighted least-squares linear regression (W=1/×). […]. The mixture was then agitated for 10 min and centrifuged at 13200 rpm for 5 min at 4° C. The resulting supernatants were transferred to a Ostro plate (Waters, Manchester, UK), designed to remove phospholipids. The resulting eluents were evaporated at 37° C. under a stream of nitrogen. Residues were dissolved in 75 μL of a mixture of methanol and water (50:50, v:v). A 10-uL aliquot of the resulting solution was injected onto the LC-MS/MS system for analysis. Frozen plasma samples were thawed at room temperature, vortexed thoroughly and subjected to the above described extraction procedure. Brain samples were thawed unassisted at room temperature and homogenized using a Branson 250 ultrasonic sonifier (Branson, Danbury, Conn., USA). When homogenized, 75 mg were weighted and extracted as described previously.
Concentration values obtained from the LC-MS/MS analyses are described in Table 4.

HDAC2 = molecular target: T4, HDAC2 (Homo sapiens, UniProt Q92769); assay: HDAC enzyme activity assay (fluorogenic substrate), HDAC2; type: biochemical; conditions: recombinant enzyme; read-out: HDAC2 inhibition (IC50)
T4 construct: NM_001527; Cat. #50002) is full-length with C-terminal his tag; His (C); purchased BPS Biosciences 50002; host or cells: baculovirus infected Sf9 cells

HDAC3 = molecular target: T5, HDAC3 (Homo sapiens, UniProt O15379); assay: HDAC enzyme activity assay (fluorogenic substrate), HDAC3; type: biochemical; conditions: recombinant enzyme; read-out: HDAC3 inhibition (IC50)
T5 construct: is full-length with C-terminal his tag and human NCOR2, N-terminal GST tag; His (C); purchased BPS Biosciences 50003; host or cells: baculovirus infected Sf9 cells

HDAC6 = molecular target: T6, HDAC6 (Homo sapiens, UniProt Q9UBN7); assay: HDAC enzyme activity assay (fluorogenic substrate), HDAC6; type: biochemical; conditions: recombinant enzyme; read-out: HDAC6 inhibition (IC50)
T6 construct: BC069243; Cat. #50006) is full-length with N-terminal GST tag; GST (N); purchased BPS Biosciences 50006; host or cells: baculovirus infected Sf9 cells
T6 sequence (Q9UBN7 1-1215): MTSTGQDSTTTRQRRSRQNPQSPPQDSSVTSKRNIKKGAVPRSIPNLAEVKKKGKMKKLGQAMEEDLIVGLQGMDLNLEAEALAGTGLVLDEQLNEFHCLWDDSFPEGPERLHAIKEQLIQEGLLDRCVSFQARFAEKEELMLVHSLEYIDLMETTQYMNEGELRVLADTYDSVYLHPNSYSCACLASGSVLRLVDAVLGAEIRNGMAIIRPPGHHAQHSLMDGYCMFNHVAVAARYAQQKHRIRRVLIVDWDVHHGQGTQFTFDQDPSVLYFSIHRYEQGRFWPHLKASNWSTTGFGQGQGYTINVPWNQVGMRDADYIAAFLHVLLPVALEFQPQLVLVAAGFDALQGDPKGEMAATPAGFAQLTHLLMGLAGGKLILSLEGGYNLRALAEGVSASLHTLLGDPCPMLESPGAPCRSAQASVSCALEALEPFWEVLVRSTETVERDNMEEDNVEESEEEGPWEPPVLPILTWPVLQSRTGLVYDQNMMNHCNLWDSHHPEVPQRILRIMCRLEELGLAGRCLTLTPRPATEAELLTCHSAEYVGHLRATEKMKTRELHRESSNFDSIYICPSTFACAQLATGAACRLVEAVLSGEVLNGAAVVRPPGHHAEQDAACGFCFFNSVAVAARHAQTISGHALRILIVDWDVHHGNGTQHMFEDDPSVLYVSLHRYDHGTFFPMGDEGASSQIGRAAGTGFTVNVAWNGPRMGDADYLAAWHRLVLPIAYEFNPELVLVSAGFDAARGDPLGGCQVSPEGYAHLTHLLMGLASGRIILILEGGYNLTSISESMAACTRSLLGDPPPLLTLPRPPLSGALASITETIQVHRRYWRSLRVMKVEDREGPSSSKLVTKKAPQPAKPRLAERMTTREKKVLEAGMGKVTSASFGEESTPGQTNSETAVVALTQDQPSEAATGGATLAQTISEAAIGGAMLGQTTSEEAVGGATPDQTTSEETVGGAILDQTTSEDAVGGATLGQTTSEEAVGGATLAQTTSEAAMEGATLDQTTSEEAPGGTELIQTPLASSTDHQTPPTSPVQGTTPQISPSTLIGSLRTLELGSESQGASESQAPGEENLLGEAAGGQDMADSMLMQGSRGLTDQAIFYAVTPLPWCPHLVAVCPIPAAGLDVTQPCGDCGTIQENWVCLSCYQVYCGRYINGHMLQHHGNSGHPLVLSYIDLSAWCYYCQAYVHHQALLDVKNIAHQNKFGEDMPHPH

Chain of HDAC1 (Q13547 whole entry): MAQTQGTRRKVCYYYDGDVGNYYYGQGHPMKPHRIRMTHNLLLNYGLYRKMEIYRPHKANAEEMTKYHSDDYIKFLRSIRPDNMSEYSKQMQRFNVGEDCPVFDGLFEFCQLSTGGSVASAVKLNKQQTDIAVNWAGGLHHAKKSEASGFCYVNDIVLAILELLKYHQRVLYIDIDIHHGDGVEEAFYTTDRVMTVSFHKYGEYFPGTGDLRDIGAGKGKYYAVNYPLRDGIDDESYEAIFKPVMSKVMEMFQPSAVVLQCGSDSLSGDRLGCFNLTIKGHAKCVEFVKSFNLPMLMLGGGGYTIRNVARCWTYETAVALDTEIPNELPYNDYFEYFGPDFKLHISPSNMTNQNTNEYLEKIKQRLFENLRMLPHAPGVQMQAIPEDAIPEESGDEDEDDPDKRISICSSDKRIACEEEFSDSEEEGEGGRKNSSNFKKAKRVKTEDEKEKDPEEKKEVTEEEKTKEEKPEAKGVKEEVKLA
T3 sequence (P27815 1-647 isoform P27815-4): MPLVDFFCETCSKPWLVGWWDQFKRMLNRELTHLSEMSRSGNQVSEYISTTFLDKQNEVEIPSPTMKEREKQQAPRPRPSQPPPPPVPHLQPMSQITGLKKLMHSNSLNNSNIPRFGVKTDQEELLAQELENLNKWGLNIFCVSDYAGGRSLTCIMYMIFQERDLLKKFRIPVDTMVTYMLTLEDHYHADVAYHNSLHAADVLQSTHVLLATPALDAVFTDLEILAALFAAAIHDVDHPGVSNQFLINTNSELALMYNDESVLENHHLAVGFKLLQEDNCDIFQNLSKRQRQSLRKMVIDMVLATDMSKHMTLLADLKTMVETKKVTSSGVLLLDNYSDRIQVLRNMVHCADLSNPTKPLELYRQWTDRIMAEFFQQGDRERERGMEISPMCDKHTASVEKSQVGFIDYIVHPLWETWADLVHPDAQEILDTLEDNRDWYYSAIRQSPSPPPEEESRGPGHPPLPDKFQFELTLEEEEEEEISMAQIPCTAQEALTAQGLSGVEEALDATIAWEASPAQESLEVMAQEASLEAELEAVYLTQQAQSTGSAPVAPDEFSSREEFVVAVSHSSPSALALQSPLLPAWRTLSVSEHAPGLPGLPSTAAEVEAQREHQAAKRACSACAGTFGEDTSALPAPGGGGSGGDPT
T2 sequence (O76083 1-533 isoform O76083-2): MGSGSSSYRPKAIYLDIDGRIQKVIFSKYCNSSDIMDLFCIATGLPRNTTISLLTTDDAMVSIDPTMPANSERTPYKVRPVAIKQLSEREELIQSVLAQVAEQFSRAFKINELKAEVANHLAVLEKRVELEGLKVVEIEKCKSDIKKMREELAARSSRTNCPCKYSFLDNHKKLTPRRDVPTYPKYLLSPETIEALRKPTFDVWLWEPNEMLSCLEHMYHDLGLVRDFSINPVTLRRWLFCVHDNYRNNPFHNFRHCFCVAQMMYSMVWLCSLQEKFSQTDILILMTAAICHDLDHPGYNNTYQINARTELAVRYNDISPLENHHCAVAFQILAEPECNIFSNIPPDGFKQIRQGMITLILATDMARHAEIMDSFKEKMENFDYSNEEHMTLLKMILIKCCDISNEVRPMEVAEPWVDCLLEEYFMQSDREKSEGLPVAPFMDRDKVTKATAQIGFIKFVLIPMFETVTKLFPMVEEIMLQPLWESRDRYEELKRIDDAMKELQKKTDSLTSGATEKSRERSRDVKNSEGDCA
T5 sequence (O15379 whole entry): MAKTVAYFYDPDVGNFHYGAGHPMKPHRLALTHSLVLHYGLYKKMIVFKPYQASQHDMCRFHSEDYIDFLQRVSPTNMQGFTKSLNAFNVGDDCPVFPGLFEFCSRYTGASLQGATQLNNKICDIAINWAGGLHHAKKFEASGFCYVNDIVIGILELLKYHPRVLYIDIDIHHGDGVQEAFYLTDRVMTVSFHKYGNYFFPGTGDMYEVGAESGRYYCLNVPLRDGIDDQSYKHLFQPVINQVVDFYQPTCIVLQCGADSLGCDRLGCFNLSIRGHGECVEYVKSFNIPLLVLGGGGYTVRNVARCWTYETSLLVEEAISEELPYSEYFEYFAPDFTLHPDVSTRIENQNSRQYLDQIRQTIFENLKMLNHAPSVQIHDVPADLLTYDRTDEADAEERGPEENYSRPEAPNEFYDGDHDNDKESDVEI
T5 sequence (Q9Y618 395-489 partner limits assumed): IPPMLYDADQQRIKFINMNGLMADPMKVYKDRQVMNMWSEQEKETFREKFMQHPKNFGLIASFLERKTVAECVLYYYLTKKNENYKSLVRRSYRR
T4 sequence (Q92769 whole entry): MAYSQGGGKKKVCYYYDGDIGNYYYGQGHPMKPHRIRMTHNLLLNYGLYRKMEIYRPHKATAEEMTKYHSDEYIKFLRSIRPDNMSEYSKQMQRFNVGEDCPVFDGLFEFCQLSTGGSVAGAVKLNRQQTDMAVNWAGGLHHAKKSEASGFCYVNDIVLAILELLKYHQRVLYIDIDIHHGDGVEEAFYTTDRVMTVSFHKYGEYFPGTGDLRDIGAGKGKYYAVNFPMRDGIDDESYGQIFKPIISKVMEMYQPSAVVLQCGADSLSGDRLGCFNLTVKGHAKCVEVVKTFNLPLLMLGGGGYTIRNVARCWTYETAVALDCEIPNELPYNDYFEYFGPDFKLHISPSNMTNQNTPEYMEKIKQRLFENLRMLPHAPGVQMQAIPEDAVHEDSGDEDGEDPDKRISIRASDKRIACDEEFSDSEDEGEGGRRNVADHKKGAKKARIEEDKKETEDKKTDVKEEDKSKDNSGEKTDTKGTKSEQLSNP
Chain of PDE4D7 (Q08499 1-748 isoform Q08499-11): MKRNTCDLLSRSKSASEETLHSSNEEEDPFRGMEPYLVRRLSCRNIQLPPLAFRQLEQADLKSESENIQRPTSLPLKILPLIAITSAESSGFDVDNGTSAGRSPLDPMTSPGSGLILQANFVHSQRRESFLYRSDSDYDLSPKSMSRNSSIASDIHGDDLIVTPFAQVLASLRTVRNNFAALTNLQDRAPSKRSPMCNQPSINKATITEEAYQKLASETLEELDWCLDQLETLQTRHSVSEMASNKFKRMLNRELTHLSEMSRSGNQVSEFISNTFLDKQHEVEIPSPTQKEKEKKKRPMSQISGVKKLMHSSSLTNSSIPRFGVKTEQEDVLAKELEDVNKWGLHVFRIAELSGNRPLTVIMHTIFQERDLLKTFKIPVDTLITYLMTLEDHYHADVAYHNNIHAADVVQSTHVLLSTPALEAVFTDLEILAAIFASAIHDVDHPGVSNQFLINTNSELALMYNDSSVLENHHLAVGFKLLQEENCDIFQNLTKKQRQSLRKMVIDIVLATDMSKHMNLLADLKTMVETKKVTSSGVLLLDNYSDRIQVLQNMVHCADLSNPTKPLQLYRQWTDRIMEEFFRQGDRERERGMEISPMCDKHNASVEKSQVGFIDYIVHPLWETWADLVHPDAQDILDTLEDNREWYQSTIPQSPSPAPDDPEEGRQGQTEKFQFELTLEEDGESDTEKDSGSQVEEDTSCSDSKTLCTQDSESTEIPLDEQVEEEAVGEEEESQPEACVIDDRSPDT

| Structure (SMILES) | IC50 (PDE5A) | IC50 (PDE9A isoform b) | pCREB, increment in biological response vs basal (pCREB [1]) | AcH3, increment in biological response vs basal (AcH3) | IC50 (HDAC1; recombinant enzyme) | EC50 (pCREB [2]) | EC50 [3] | further results |
| --- | --- | --- | --- | --- | --- | --- | --- | --- |
| O=C(CCCCCCC(=O)Nc1ccccc1)NO [Vorinostat, reference compound] | > 10 µM | > 10 µM | N.E. (N.E. means No Effect) | +++ (basal×2≦(+++)<basal×3) |  |  |  |  |
| COc1ccc(N(C(=O)c2c(Cl)cncc2Cl)C2CCN(c3ncc(C(=O)NO)cn3)CC2)cc1OC1CCCC1 [Example 5-04] |  |  |  |  |  |  |  | IC50 (PDE4A1): > 10 µM; IC50 (PDE4D7): > 10 µM; IC50 (HDAC1): 0.01 to 1 µM |
| CCCc1nn(C)c2c(=O)[nH]c(-c3cc(OC4CCN(c5ncc(C(=O)NO)cn5)CC4)ccc3OCC)nc12 [Example 1-12] | 0.01 to 1 µM | 1 to 10 µM | +++ (basal×2≦(+++)<basal×3) | ++ (basal×1≦(++)<basal×2) | 0.01 to 1 µM | 0.01 to 1 µM | 0.01 to 1 µM | CMax (brain; nmol/Kg) ([4]; in vivo, 40 mg/kg): 71.3 (19.5)^c nmol/Kg; Tmax ([4]; dosage 40 mg/Kg, single intraperitoneal injection, wild type mice, time of maximum concentration in brain): 15 min; Cmax ([4]; plasma, dosage 40 mg/Kg, single intraperitoneal injection, wild type mice, at tMax, (Standard Deviation)): 1880 nM |
| C[C@@H]1CN(Cc2ncccn2)C[C@H]1c1nc2c(cnn2C2CCOCC2)c(=O)[nH]1 [PF-4447943, 6-[(3S,4S)-4-methyl-1-(pyrimidin-2-ylmethyl)pyrrolidin-3-yl]-1-(tetrahydro-2H-pyran-4-yl)-1H-pyrazolo[3,4-d]pyrimidin-4(5H)-one, reference compound] | 1 to 10 µM |  |  |  |  |  |  | IC50 (PDE4A1; recombinant enzyme): 1 to 10 µM |
| CCCc1nn(C)c2c(=O)[nH]c(-c3cc(N(C)C4CCN(c5ncc(C(=O)NO)cn5)CC4)ccc3OCC)nc12 [Example 1-25] | < 0.01 µM |  |  |  | 0.01 to 1 µM | 1 to 10 µM | 0.01 to 1 µM | IC50 (HDAC2): 0.01 to 1 µM; IC50 (HDAC3): 0.01 to 1 µM; IC50 (HDAC6): 0.01 to 1 µM |
